IC50 data for 54 compounds are collected here from patent US9216964B2, “Hedgehog pathway modulators” (Novartis AG, priority 2008, dated 2015).

Molecules are shown by their SMILES. Like-named read-outs stand apart in the source and are kept apart here.

This test deals with hedgehog signaling pathway. Description: Gli-Luc Reporter Assay for Hh Pathway Inhibition (TMHh-12 cells, pTA-8×Gli-Luc reporter). Type of test: cell-based, Mouse. Here is the method:
Compounds of the present invention are assayed to evaluate their capacity to inhibit the hedgehog signaling pathway.
Gli-Luc Reporter Assay for Hh Pathway Inhibition
Mouse TM3 cells (obtained from American Type Culture Collection, ATCC, Manassas, Va.) are cultured in DMEM/F12 medium (Gibco/Invitrogen, Carlsbad, Calif.) supplemented with 5% heat inactivated horse serum and 2.5% FBS (Gibco/Invitrogen, Carlsbad, Calif.), 50 unit/mL penicillin and 50 μg/mL of streptomycin (Gibco/Invitrogen, Carlsbad, Calif.) at […] with 5% CO2 in air atmosphere. TM3 cells were transfected with pTA-8×Gli-Luc reporter plasmid. A stably transfected clone termed TMHh-12 was selected. […] To evaluate the IC50s of the antagonists, 8000 TMHh-12 cells were plated into each wells in 384-well plates with 50% DMEM/F12 medium supplemented with 2% FBS. After 12 hours, Hh pathway is activated by adding recombinant mouse Shh protein (expressed in E. coli, 8 μg/mL) or by adding Smo agonists. The testing compounds are added into plates with different concentrations. After 48 hours, the firefly luciferase luciferase activities are assayed with the Bright-Glo™ Luciferase Assay System (Promega, Madison, Wis.). The IC50 is measured when the effect of the compound reduces the luminescence signal by 50%. Toxicity of these compounds are evaluated in TM3 cells using CellTiter Glo assays or by TM3-Luc cell line (a TM3 cell stably transfected with a constitutive luciferase expression vector).

The mark [1] stands for this setting: enzymatic and cellular assays for the inhibition of hedgehog signaling pathways, read-out: IC50 Ranges.
Where [2] appears, read: Mus musculus, TMHh12, Ag1.5 1 nM, read-out: Hedgehog Inhibition IC50 (nM) (Ag1.5 1 nM).
[3] abbreviates: Mus musculus, TMHh12, enzymatic and cellular assays for the inhibition of hedgehog signaling pathways, read-out: IC50 Ranges.

Take `[O-][S+]1CCC(N2CCc3c(cccc3Nc3ccc(Cl)c(-c4ncc(-c5ccccc5)[nH]4)c3)C2)CC1` (centres unmarked) [Compound 1]: under setting [1], the IC50 fell in the range of 0.001 to 1 nM.
On to `CC(CO)(CO)C(=O)N1CCc2c(cccc2Nc2ccc(Cl)c(-c3ncc(-c4ccccc4)[nH]3)c2)C1` [Compound 2], for which the IC50 under setting [2] was determined as 0.45 nM and the IC50 under setting [3] fell in the range of 0.001 to 1 nM.
Turning to `O=S1(=O)CCC(N2CCc3c(cccc3Nc3ccc(Cl)c(-c4ncc(-c5ccccc5)[nH]4)c3)C2)CC1` [Compound 3], the 50% inhibitory concentration (IC50) was 0.06 nM under setting [2] and 0.001 to 1 nM under setting [3].
Regarding `CS(=O)(=O)N1CCc2c(cccc2Nc2ccc(Cl)c(-c3ncc(-c4ccccc4)[nH]3)c2)C1` [Compound 4], the 50% inhibitory concentration (IC50) under setting [3] lay in the range of 0.001 to 1 nM.
For `Cc1ccc(Nc2cccc3c2CCN(S(C)(=O)=O)C3)cc1-c1nc2ccccc2[nH]1` [Compound 5], the half-maximal inhibitory concentration (IC50) reads like this: under setting [2], 0.1 nM; under setting [3], 0.001 to 1 nM.
As to `CCN1CCC(N2CCc3c(cccc3Nc3ccc(Cl)c(-c4ncc(-c5ccccc5)[nH]4)c3)C2)CC1` [Compound 6], the IC50 under setting [3] was 0.001 to 1 nM.
Consider `CS(=O)(=O)CC(=O)N1CCc2c(cccc2Nc2ccc(Cl)c(-c3ncc(-c4ccccc4)[nH]3)c2)C1` [Compound 7], for which the IC50 reads like this: under setting [2], 0.25 nM; under setting [3], 0.001 to 1 nM.
`C[C@@H](O)C(=O)N1CCc2c(cccc2Nc2ccc(Cl)c(-c3ncc(-c4ccccc4)[nH]3)c2)C1` [Compound 8]: the half-maximal inhibitory concentration (IC50) under setting [3] was 0.001 to 1 nM.
With `O=C(C(O)CO)N1CCc2c(cccc2Nc2ccc(Cl)c(-c3ncc(-c4ccccc4)[nH]3)c2)C1` (centres unmarked) [Compound 9], the concentration for half-maximal inhibition (IC50) under setting [3] fell in the range of 0.001 to 1 nM.
The same measure, in the same setting: the same measure for `CC(O)C(=O)N1CCc2c(cccc2Nc2ccc(Cl)c(-c3ncc(-c4ccccc4)[nH]3)c2)C1` (centres unmarked) [Compound 10]: 0.001 to 1 nM; for `CC(=O)N1CCC(N2CCc3c(cccc3Nc3ccc(Cl)c(-c4ncc(-c5ccccc5)[nH]4)c3)C2)CC1` [Compound 11]: 0.001 to 1 nM; for `[O-][S+]1CCC(N2CCc3c(cccc3Nc3ccc(Cl)c(-c4ncc(-c5ccccc5)[nH]4)c3)C2)CC1` (centres unmarked) [Compound 12]: 0.001 to 1 nM.
Consider `NS(=O)(=O)N1CCc2c(cccc2Nc2ccc(Cl)c(-c3ncc(-c4ccccc4)[nH]3)c2)C1` [Compound 13], for which the concentration for half-maximal inhibition (IC50) reads like this: under setting [2], 1.6 nM; under setting [3], 1 to 10 nM.
On to `CC(C)(CO)C(=O)N1CCc2c(cccc2Nc2ccc(Cl)c(-c3ncc(-c4ccccc4)[nH]3)c2)C1` [Compound 14], for which the IC50 under setting [3] was 0.001 to 1 nM.
With `COc1ccc2[nH]c(-c3cc(Nc4cccc5c4CCN(S(C)(=O)=O)C5)ccc3C)nc2c1` [Compound 15], under setting [3], the half-maximal inhibitory concentration (IC50) lay within 0.001 to 1 nM.
`CN(C)c1ccc2nc(-c3cc(Nc4cccc5c4CCN(S(C)(=O)=O)C5)ccc3Cl)[nH]c2c1` [Compound 16]: the IC50 by setting is: under setting [2], 3.8 nM; under setting [3], 1 to 10 nM.
As to `O=S(=O)(NCCO)N1CCc2c(cccc2Nc2ccc(Cl)c(-c3ncc(-c4ccccc4)[nH]3)c2)C1` [Compound 17], the IC50 under setting [3] fell in the range of 0.001 to 1 nM.
For `OC[C@H](O)CN1CCc2c(cccc2Nc2ccc(Cl)c(-c3ncc(-c4ccccc4)[nH]3)c2)C1` [Compound 18], the IC50 under setting [3] lay within 0.001 to 1 nM.
For `C[S+]([O-])CC(=O)N1CCc2c(cccc2Nc2ccc(Cl)c(-c3ncc(-c4ccccc4)[nH]3)c2)C1` (centres unmarked) [Compound 19], the IC50 under setting [3] lay within 0.001 to 1 nM.
Turning to `C[C@H](O)C(=O)N1CCc2c(cccc2Nc2ccc(Cl)c(-c3ncc(-c4ccccc4)[nH]3)c2)C1` [Compound 20], the IC50 under setting [3] lay in the range of 1 to 10 nM.
Consider `CC1(C)CC(N2CCc3c(cccc3Nc3ccc(Cl)c(-c4ncc(-c5ccccc5)[nH]4)c3)C2)CC(C)(C)N1` [Compound 21], for which the IC50 is 0.86 nM under setting [2] and 0.001 to 1 nM under setting [3].
For `Clc1ccc(Nc2cccc3c2CCN(C2CCCCC2)C3)cc1-c1ncc(-c2ccccc2)[nH]1` [Compound 22], under setting [3], the 50% inhibitory concentration (IC50) was 1 to 10 nM.
As for `Clc1ccc(Nc2cccc3c2CCN(CC2CCCCC2)C3)cc1-c1ncc(-c2ccccc2)[nH]1` [Compound 23], the 50% inhibitory concentration (IC50) under setting [2] came to 2 nM and the half-inhibitory concentration (IC50) under setting [3] was in the range of 1 to 10 nM.
Turning to `CNS(=O)(=O)N1CCc2c(cccc2Nc2ccc(Cl)c(-c3ncc(-c4ccccc4)[nH]3)c2)C1` [Compound 25], the half-inhibitory concentration (IC50) under setting [3] lay in the range of 1 to 10 nM.
With `[O-][S+]1CCC([N+]2([O-])CCc3c(cccc3Nc3ccc(Cl)c(-c4ncc(-c5ccccc5)[nH]4)c3)C2)CC1` (centres unmarked) [Compound 26], the IC50 under setting [3] lay within 1 to 10 nM.
As to `O=C([C@@H](O)CO)N1CCc2c(cccc2Nc2ccc(Cl)c(-c3nc(-c4ccccc4)c[nH]3)c2)C1` [Compound 27], under setting [3], the IC50 fell in the range of 0.001 to 1 nM.
Still for that read-out and setting: the same measure for `CC1(C)OC[C@H](CN2CCC(N3CCc4c(cccc4Nc4ccc(Cl)c(-c5ncc(-c6ccccc6)[nH]5)c4)C3)CC2)O1` [Compound 28]: 1 to 10 nM; for `Clc1ccc(Nc2cccc3c2CCN(C2CCOCC2)C3)cc1-c1ncc(-c2ccccc2)[nH]1` [Compound 29]: 0.001 to 1 nM.
With `Clc1ccc(Nc2cccc3c2CCN(C2CCCCCC2)C3)cc1-c1ncc(-c2ccccc2)[nH]1` [Compound 30], the IC50 reads like this: under setting [2], 1.2 nM; under setting [3], 1 to 10 nM.
Consider `CCC(CC)N1CCC(N2CCc3c(cccc3Nc3ccc(Cl)c(-c4ncc(-c5ccccc5)[nH]4)c3)C2)CC1` [Compound 31], for which the half-inhibitory concentration (IC50) under setting [3] fell in the range of 0.001 to 1 nM.
For `CCN1CCC(N2CCc3c(Nc4ccc(Cl)c(-c5ncc(-c6ccccc6)[nH]5)c4)cccc3C2=O)CC1` [Compound 32], under setting [3], the IC50 lay within 1 to 10 nM.
Regarding `O=C1CCC(N2CCc3c(cccc3Nc3ccc(Cl)c(-c4ncc(-c5ccccc5)[nH]4)c3)C2)CC1` [Compound 33], the 50% inhibitory concentration (IC50) runs as follows: under setting [2], 0.7 nM; under setting [3], 0.001 to 1 nM.
In the case of `OCC(CO)N1CCc2c(cccc2Nc2ccc(Cl)c(-c3ncc(-c4ccccc4)[nH]3)c2)C1` [Compound 34], the IC50 by setting is: under setting [2], 1.8 nM; under setting [3], 1 to 10 nM.
Consider `O=C1c2cccc(Nc3ccc(Cl)c(-c4ncc(-c5ccccc5)[nH]4)c3)c2CCN1C[C@H](O)CO` [Compound 35], for which the concentration for half-maximal inhibition (IC50) is 2.6 nM under setting [2] and 1 to 10 nM under setting [3].
For `CC(C)N1CCC(N2CCc3c(cccc3Nc3ccc(Cl)c(-c4ncc(-c5ccccc5)[nH]4)c3)C2)CC1` [Compound 36], the half-inhibitory concentration (IC50) under setting [3] lay in the range of 0.001 to 1 nM.
For `OC1CCC(N2CCc3c(cccc3Nc3ccc(Cl)c(-c4ncc(-c5ccccc5)[nH]4)c3)C2)CC1` (centres unmarked) [Compound 37], the 50% inhibitory concentration (IC50) reads like this: under setting [2], 0.73 nM; under setting [3], 0.001 to 1 nM.
Consider `O=C([C@H](O)CO)N1CCc2c(cccc2Nc2ccc(Cl)c(-c3nc(-c4ccccc4)c[nH]3)c2)C1` [Compound 38], for which the half-inhibitory concentration (IC50) under setting [3] was in the range of 0.001 to 1 nM.
`Clc1ccc(Nc2cccc3c2CCN(CC2CCOCC2)C3)cc1-c1ncc(-c2ccccc2)[nH]1` [Compound 39]: the IC50 under setting [3] fell in the range of 0.001 to 1 nM.
Regarding `OCC(O)CN1CCC(N2CCc3c(cccc3Nc3ccc(Cl)c(-c4ncc(-c5ccccc5)[nH]4)c3)C2)CC1` (centres unmarked) [Compound 40], the 50% inhibitory concentration (IC50) under setting [3] was 0.001 to 1 nM.
As for `CN1CCC(N2CCc3c(cccc3Nc3ccc(Cl)c(-c4ncc(-c5ccccc5)[nH]4)c3)C2)CC1` [Compound 41], the IC50 under setting [3] lay in the range of 1 to 10 nM.
Turning to `O=C(NCCO)N1CCc2c(cccc2Nc2ccc(Cl)c(-c3ncc(-c4ccccc4)[nH]3)c2)C1` [Compound 42], the IC50 under setting [2] was found to be 0.0017 nM and the IC50 under setting [3] was 0.001 to 1 nM.
Consider `NC(=O)N1CCc2c(cccc2Nc2ccc(Cl)c(-c3ncc(-c4ccccc4)[nH]3)c2)C1` [Compound 43], for which the IC50 is 4.5 nM under setting [2] and 1 to 10 nM under setting [3].
With `O=C(O)CC(=O)N1CCc2c(cccc2Nc2ccc(Cl)c(-c3nc(-c4ccccc4)c[nH]3)c2)C1` [Compound 44], the concentration for half-maximal inhibition (IC50) under setting [3] lay in the range of 1 to 10 nM.
In the case of `CC(C)(C)OC(=O)N1CCc2c(cccc2Nc2ccc(Cl)c(-c3ncc(-c4ccccc4)[nH]3)c2)C1` [Compound 45], the IC50 reads like this: under setting [2], 3 nM; under setting [3], 1 to 10 nM.
In the case of `CC(C)N1CCc2c(cccc2Nc2ccc(Cl)c(-c3ncc(-c4ccccc4)[nH]3)c2)C1` [Compound 46], the concentration for half-maximal inhibition (IC50) under setting [3] lay in the range of 1 to 10 nM.
In the case of `C[S+]([O-])CCCN1CCc2c(cccc2Nc2ccc(Cl)c(-c3ncc(-c4ccccc4)[nH]3)c2)C1` (centres unmarked) [Compound 47], the concentration for half-maximal inhibition (IC50) under setting [3] was 1 to 10 nM.
On the same count and under the same terms, the result for `OC[C@H](O)[C@@H](O)CN1CCc2c(cccc2Nc2ccc(Cl)c(-c3ncc(-c4ccccc4)[nH]3)c2)C1` [Compound 48] reads 1 to 10 nM.
On to `[O-][n+]1ccc(N2CCc3c(cccc3Nc3ccc(Cl)c(-c4ncc(-c5ccccc5)[nH]4)c3)C2)cc1` [Compound 49], for which, under setting [3], the half-maximal inhibitory concentration (IC50) was in the range of 1 to 10 nM.
On to `O=C(O)CCN1CCc2c(Nc3ccc(Cl)c(-c4nc(-c5ccccc5)c[nH]4)c3)cccc2C1=O` [Compound 50], for which the half-maximal inhibitory concentration (IC50) under setting [3] lay within 10 to 100 nM.
On to `Clc1ccc(Nc2cccc3c2CCN(Cc2cccnc2)C3)cc1-c1ncc(-c2ccccc2)[nH]1` [Compound 51], for which the IC50 reads like this: under setting [2], 11 nM; under setting [3], 10 to 100 nM.
As for `Cc1ccc(Nc2cccc3c2CCN(C2CCS(=O)(=O)CC2)C3)cc1-c1ncc(-c2cccnc2)[nH]1` [Compound 52], the IC50 under setting [1] lay within 10 to 100 nM.
`O=C(O)CN1CCc2c(cccc2Nc2ccc(Cl)c(-c3nc(-c4ccccc4)c[nH]3)c2)C1` [Compound 53]: the IC50 under setting [3] lay within 10 to 100 nM.
Regarding `CN(C)CC(C)(C)CN1CCc2c(cccc2Nc2ccc(Cl)c(-c3ncc(-c4ccccc4)[nH]3)c2)C1` [Compound 54], under setting [3], the IC50 lay within 0.001 to 1 nM.
Same read-out and setting: the result for `CC(C)C(=O)N1CCc2c(cccc2Nc2ccc(Cl)c(-c3ncc(-c4ccccc4)[nH]3)c2)C1` [Compound 55] reads 1 to 10 nM.
